Each structure is given as a SMILES string. Like-named read-outs stand apart in the source and are kept apart here.

These results are taken from US20240390301A1, “COMBINATIONS OF PERIPHERAL 5-HT2A RECEPTOR ANTAGONISTS AND CENTRAL 5-HT2A RECEPTOR AGONISTS” (priority 2021, published 2024).

One data set in a line: in vitro. The settings on record: for fraction unbound at 4 h, 5 μM: pH 7.4. How it is done:
Method 1. Aliquots of 50 μL loading matrix containing test compound (2 μM final incubation concentration) or control compound in triplicate were transferred to a Sample Collection Plate. The samples were matched with opposite blank buffer to obtain a final volume of 100 μL, with a volume ratio of matrix: Dialysis Buffer of 1:1 (v:v) in each well. Stop solution (200 ng/ml tolbutamide and 200 ng/mL labetalol in ACN) was added to these TO samples of test compound and control compound. The plate was sealed and shaken at 800 rpm for 10 min. An aliquot of 100 μL of the loading matrix containing test compound or control compound was transferred to the donor side of each dialysis well in triplicate and 100 μL of the Dialysis Buffer was loaded to the receiver side of the well. Then the plate was rotated at approximately 100 rpm in a humidified incubator with 5% CO2 at 37±1° C. for 4 hours. At the end of the dialysis, aliquots of 50 μL samples from the buffer side and matrix side of the dialysis device were taken into new 96-well plates (Sample Collection Plates). An equal volume of opposite blank matrix (buffer or matrix) in each sample was added to reach a final volume of 100 μL, with volume ratio of matrix: Dialysis Buffer of 1:1 (v:v) in each well. All samples were further processed by protein precipitation before LC-MS/MS analysis.
Method 2. Aliquots (200 μL) of positive controls and test compounds at 5 μM (triplicates) were separately added to the plasma chamber and […] of phosphate buffered saline (pH 7.4) was added to the buffer chamber of the inserts. After sealing the rapid equilibrium dialysis (RED) device with an adhesive film, dialysis was performed in an incubator at 37° C. with shaking at 100 RPM for 4 hours. Aliquots (50 μL) of warfarin and test compounds were added to four 0.5 mL micro fuse tubes. Two aliquots were frozen immediately (0-minute sample). The other two aliquots were incubated at 37° C. for 4 hours along with the RED device. Following dialysis, an aliquot of 50 μL was removed from each well (both plasma and buffer side) and diluted with an equal volume of opposite matrix (dialyzed with the other matrix) to nullify the matrix effect. Similarly, 50 μL of buffer was added to recovery and stability samples. An aliquot of 100 μL was used for LC-MS/MS analysis following protein precipitation with ACN containing internal standard.

A short description of another data set: Rat plasma stability. It counts as in vitro ADME. The settings on record: 37° C. On the procedure:
The results were used to confirm that the plasma protein binding results were not confounded by poor plasma stability.
Method 1. […] Plasma was centrifuged at 4,000 rpm for 5 min and any clots were remove.
Method 2. […]

The nature of the next data set: in vivo. It counts as in vivo, rat. The conditions noted are these: for Peripheral restriction / brain penetration: from free brain:free plasma ratios; for Kp at 0.167 h / Kp at 0.5 h: male, Sprague Dawley, rat, in vivo; for Kp at 0.167 h: read-out: Free Brain:Free Plasma (0.167 h); for Kp at 0.5 h: read-out: Free Brain:Free Plasma (0.5 h). On the procedure:
The ratio of free brain concentration to free plasma concentration was calculated at 0.167 h and 0.5 h post administration for each compound using the data presented in the above examples and the following formula.
A smaller value for the free brain: free plasma ratio indicates greater peripheral restriction and therefore, better suitability for the methods of the present disclosure.

For data set [1] the following is noted: 37° C. How it is done: Method 1. Pooled frozen rat brain homogenate was thawed in a water bath at 37° C. prior to the experiment. Using an Apricot automation workstation, 98 μL/well of blank brain homogenate or 100 mM PBS were added to all 96-well reaction plates (Blank, T0, T10, T30, T60, and T120). […] All reaction plates containing mixtures of compound and brain homogenate were incubated at 37° C. in a water bath for up to 120 minutes. At the end of incubation, 500 uL of stop solution (200 ng/mL tolbutamide and 200 ng/mL labetalol in ACN) was added to precipitate protein and mixed thoroughly for 20 minutes at 4° C. After centrifugation at 4,000 rpm and 4° C. for 20 minutes, an Apricot automation workstation was used to transfer 150 μL of supernatant from each reaction plate to its corresponding bioanaylsis plate, which was shaken for 10 minutes prior to LC-MS/MS analysis.
Method 2. Rat brain tissue homogenate samples were prepared by diluting one volume of whole rat brain tissue with two volumes of dialysis buffer (phosphate buffered saline pH 7.4-0.1 M sodium phosphate and 0.15 M sodium chloride) to yield 3 times diluted homogenate. Test compounds were spiked into 400 μL aliquots (n=3) of rat brain homogenate and the resulting mixtures were incubated at 37° C. […] An aliquot (100 μL) of each sample was transferred to a 96-well deep plate and analyzed by LC-MS/MS.

Another data set deals with T1, 5-HT2A receptor (Homo sapiens, UniProt P28223).
T1 construct: WuXi AppTec (Hong Kong) Limited (contract laboratory that ran the assay)
The data set can be described thus: 5-HT2A radioligand binding with [3H]ketanserin. On the procedure: The binding affinities of key peripheral 5-HT2A receptor antagonists, as well as reference 5-HT2A agonists, at the ketanserin binding site of the 5-HT2A receptor and the mesulergine binding site of the 5-HT2C receptor were determined in radioligand binding experiments.
Method. Affinity of the test compounds for the 5-HT2A and 5-HT2C receptors was determined in radioligand binding experiments with [^3H] ketanserin and [^3H] mesulergine, respectively, by WuXi AppTec (Hong Kong) Limited, using methods adapted from the literature and under conditions described in Table 1.

A short description of data set [2]: Metabolic stability in human liver microsomes. The conditions noted are these: for half-life at 1 μM / microsomal CLint at 1 μM: both sexes, human, microsomes, pH 7.4. It counts as in vitro ADME. How it is done: HLM Stability. Pooled HLM from adult male and female donors (Corning 452117) were used. Microsomal incubations were carried out in multi-well plates. Liver microsomal incubation medium consisted of PBS (100 mM, pH 7.4), MgCl2 (1 mM), and NADPH (1 mM), with 0.50 mg of liver microsomal protein per mL. Control incubations were performed by replacing the NADPH-cofactor system with PBS. Test compounds (1 μM, final solvent concentration 1.0%) were incubated with microsomes at 37° C. with constant shaking. Six time points over 60 minutes were analyzed, with 60 μL aliquots of the reaction mixture being drawn at each time point. The reaction aliquots were stopped by adding 180 μL of cold (4° C.) acetonitrile containing 200 ng/mL tolbutamide and 200 ng/ml labetalol as internal standards (IS), followed by shaking for 10 minutes, and then protein sedimentation by centrifugation at 4,000 rpm for 20 minutes at 4° C. Supernatant samples (80 μL) were diluted with water (240 μL) and analyzed for parent compound remaining using a fit-for-purpose liquid chromatography-tandem mass spectrometry (LC-MS/MS) method.
Data Analysis. The elimination constant (kel), half-life (t1/2), and intrinsic clearance (CLint) were determined in a plot of […] versus time, using linear regression analysis.
On the technique in general: Liver microsomes are vesicles of endoplasmic reticulum, rich in cytochrome P450 enzymes.

Setting [3] is: calculated using 10 mg/kg PK data.
[4] abbreviates: Method 2: 3 times diluted homogenate.
The mark [5] stands for this setting: HEK293 stable cell line, 1 nM [3H]ketanserin, 1 h, 25° C., read-out: 5-HT2A Ki (nM) ([3H]ketanserin).
Setting [6] is: HLM, 1 μM, 0.50 mg protein per mL, NADPH.

T1 sequence (P28223 whole entry): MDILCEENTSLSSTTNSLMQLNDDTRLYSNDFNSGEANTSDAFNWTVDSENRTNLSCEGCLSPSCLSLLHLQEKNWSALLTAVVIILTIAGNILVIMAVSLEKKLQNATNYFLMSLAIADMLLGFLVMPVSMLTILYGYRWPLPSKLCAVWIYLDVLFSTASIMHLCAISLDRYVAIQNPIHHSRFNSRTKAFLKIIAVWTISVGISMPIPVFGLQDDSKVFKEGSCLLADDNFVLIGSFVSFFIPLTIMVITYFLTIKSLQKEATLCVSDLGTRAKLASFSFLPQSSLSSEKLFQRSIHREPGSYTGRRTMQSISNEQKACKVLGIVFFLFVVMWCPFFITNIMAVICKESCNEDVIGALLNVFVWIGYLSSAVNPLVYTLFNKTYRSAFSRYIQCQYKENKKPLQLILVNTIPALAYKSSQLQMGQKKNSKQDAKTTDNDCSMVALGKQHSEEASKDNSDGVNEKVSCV

For the molecule `COc1cccc(C(=O)Nc2ccc(OCCN3CCOCC3)c(-c3ccnn3C)c2)c1` [temanogrel], the unbound share (fraction unbound) (in general, free concentration divided by total concentration) at 4 h, 5 μM in the data set “in vitro” (rat, plasma) came to 0.091. Besides, the “% Remaining (120 minutes), rat plasma” value in the data set “Rat plasma stability” (Method 2: 5 μM) is on record as 95%. Further, the “Peripheral restriction / brain penetration” value in “in vivo” is reported as “substantial brain penetration”. For the same molecule, in “in vivo” (setting [3]), the Kp at 0.167 h is 0.33 and the Kp at 0.5 h is 0.34. The “% Remaining (120 minutes), rat brain homogenate” value in data set [1] (setting [4]) was determined as 101%.

`CC(C)COc1ccc(CNC(=O)N(Cc2ccc(F)cc2)C2CCN(C(=O)CC[C@H](N)C(=O)O)CC2)cc1` [Compound 14a, (S)-2-amino-5-(4-(1-(4-fluorobenzyl)-3-(4-isobutoxybenzyl)ureido)piperidin-1-yl)-5-oxopentanoic acid] had a fraction unbound at 4 h, 5 μM in “in vitro” (rat, plasma) of 0.06. Besides, the “% Remaining (120 minutes), rat plasma” value in the data set “Rat plasma stability” (Method 2: 5 μM) turned out to be 97%. Also, the “Peripheral restriction / brain penetration” value in the data set “in vivo” was “good peripheral restriction”. Moreover, in the data set “in vivo” (calculated using 1 mg/kg data), the Kp at 0.167 h is 0 and the Kp at 0.5 h is 0. Further, in “in vivo” (setting [3]), the Kp at 0.167 h was 0.048 and the Kp at 0.5 h was 0.035. In addition, the inhibition constant Ki – broadly, the equilibrium dissociation constant of an inhibitor or competing ligand from its target – on 5-HT2A receptor (setting [5]) was 3.83 nM. Besides, the “Metabolic stability in HLM” value in data set [2] was “highly stable”. Moreover, in data set [2] (setting [6]), the half-life (usually how long it takes for the measured level to halve) at 1 μM is above 145 min and the intrinsic metabolic clearance (microsomal CLint) (in general, the rate of metabolic loss divided by the concentration) at 1 μM is below 9.6 µL/min/mg.

In turn, `COc1cccc(CCc2ccccc2OCC(CN(C)C)OC(=O)CCC(=O)O)c1` (stereo not shown) [sarpogrelate] gave an unbound share (fraction unbound) at 4 h, 5 μM in the data set “in vitro” (rat, plasma) of 0.002. The “% Remaining (120 minutes), rat plasma” value in the data set “Rat plasma stability” (Method 2: 5 μM) was 67%. Besides, the “Peripheral restriction / brain penetration” value in “in vivo” is recorded as “substantial brain penetration”. For the same molecule, in “in vivo” (setting [3]), the Kp at 0.167 h is 0.37 and the Kp at 0.5 h is 0.29.

`CC(CNC(=N)CNc1ccccc1)Oc1cccc(Cl)c1.O=CO` (stereo not shown) [BW501C67, N-(2-(3-chlorophenoxy)propyl)-2-(phenylamino)acetimidamide formate] showed a fraction unbound at 4 h, 2 μM in “in vitro” (rat, plasma) of 0.107. The “% Remaining (120 minutes), rat plasma” value in the data set “Rat plasma stability” (Method 1: 2 μM) stood at 100.7%. Moreover, in “in vivo”, the “Peripheral restriction / brain penetration” value is “by far the most peripherally restricted compound”. For the same molecule, in the data set “in vivo” (calculated using 1 mg/kg data), the Kp at 0.167 h was 0.0032 and the Kp at 0.5 h is 0.0052. In addition, the affinity at 5-HT2A receptor, expressed as Ki, was 0.42 nM. Besides, in data set [1] (Method 1: 1 μM), the “% Remaining (120 minutes), rat brain homogenate” value was 110.8%. Also, the “Metabolic stability in HLM” value in data set [2] was “poor metabolic stability”. Besides, in data set [2] (setting [6]), the half-life at 1 μM came to 7.2 min and the microsomal CLint at 1 μM was found to be 192 µL/min/mg.

Take `COc1cccc(OC(C)CNC(=N)Cc2cccc(C)c2)c1.O=C(O)C(F)(F)F` (stereo not shown) [xylamidine, N-(2-(3-methoxyphenoxy)propyl)-2-(m-tolyl) acetimidamide trifluoroacetate]: the “Mean % bound (rat plasma protein binding)” value in the data set “in vitro” (Method 2: RED, 5 μM, 4 hours, 37° C.) came out at 65.6%. Besides, the “% Remaining (120 minutes), rat plasma” value in “Rat plasma stability” (Method 2: 5 μM) is on record as 94%. For the same molecule, in the data set “in vivo” (calculated using 1 mg/kg data), the “Free Brain:Free Plasma (0.167 h)” value was 0.018 and the “Free Brain:Free Plasma (0.5 h)” value is listed as 0.052. Besides, in “in vivo” (setting [3]), the “Free Brain:Free Plasma (0.167 h)” value is listed as 0.018 and the “Free Brain:Free Plasma (0.5 h)” value is reported as 0.018. Moreover, at 5-HT2A receptor (setting [5]), the inhibition constant (Ki) came to 0.55 nM. The “% Remaining (120 minutes), rat brain homogenate” value in data set [1] (setting [4]) was 100%. Further, in data set [2], the “Metabolic stability in HLM” value was “poor metabolic stability”. In data set [2] (setting [6]), the “Clint” value was determined as 448.6 µL/min/mg and the “t1/2” value stood at 3.1 min.
